In US20120004215A1 (priority 2009, published 2012):

Molecular target: α7-subtype of nicotinic receptors (Mus musculus, UniProt P49582)
Format: in vivo, mice
Details: ex vivo, mouse hippocampal membranes; dose inhibiting specific binding of 3H-α-bungarotoxin (1 nM) by 50%

α7-subtype of nicotinic receptors, sequence (P49582 23-502): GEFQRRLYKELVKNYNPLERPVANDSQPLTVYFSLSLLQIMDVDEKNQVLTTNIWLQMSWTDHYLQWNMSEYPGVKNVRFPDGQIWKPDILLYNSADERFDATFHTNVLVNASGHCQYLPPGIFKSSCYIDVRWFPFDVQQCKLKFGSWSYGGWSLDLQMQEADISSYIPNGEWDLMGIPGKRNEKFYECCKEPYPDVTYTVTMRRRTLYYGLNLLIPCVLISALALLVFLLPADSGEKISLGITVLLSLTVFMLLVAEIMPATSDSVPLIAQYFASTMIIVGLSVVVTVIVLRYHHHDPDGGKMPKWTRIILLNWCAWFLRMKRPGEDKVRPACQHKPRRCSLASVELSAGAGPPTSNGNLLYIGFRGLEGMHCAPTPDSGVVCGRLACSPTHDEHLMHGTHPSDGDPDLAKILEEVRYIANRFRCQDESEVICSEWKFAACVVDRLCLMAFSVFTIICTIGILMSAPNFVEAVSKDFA

For `O=c1c2ccccc2nnn1-c1cnc(N2CC[N+]3([O-])CCC2CC3)nc1` [Compound 1, 3-[2-(1-Oxy-1,4-diaza-bicyclo[3.2.2]non-4-yl)-pyrimidin-5-yl]-3H-benzo[d][1,2,3]-triazin-4-one], the “EC50 (mg/kg), Inhibition of 3H-α-Bungarotoxine Binding” value was 9.4 mg/kg.
